# In patent publication US7572817B2, “2,5-disubstituted 3-mercaptopentanoic acid” (AstraZeneca AB, priority 2002, dated 2009):
# pIC50: −log10 of the molar value.
# Target: T1, carboxypeptidase U (Homo sapiens, UniProt Q96IY4)
# T1 sequence (Q96IY4 115-423): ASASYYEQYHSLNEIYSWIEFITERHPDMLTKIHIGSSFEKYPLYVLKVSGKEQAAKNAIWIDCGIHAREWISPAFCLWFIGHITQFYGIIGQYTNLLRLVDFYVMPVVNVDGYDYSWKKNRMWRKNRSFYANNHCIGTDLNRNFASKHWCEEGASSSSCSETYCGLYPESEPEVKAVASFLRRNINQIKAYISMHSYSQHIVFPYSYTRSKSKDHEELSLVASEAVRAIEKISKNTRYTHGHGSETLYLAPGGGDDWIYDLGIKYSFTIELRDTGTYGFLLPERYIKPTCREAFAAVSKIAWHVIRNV
# Experiment: carboxypeptidase U inhibition assay (Hendriks et al., Clinical Chemistry 31, 1936-1939 (1985))
# Type: biochemical
# Conditions: assay of Hendriks, Scharpé and van Sande
# Source text: The inhibiting effect of the compounds of the present invention was estimated using the assay described in: Dirk Hendriks, Simon Scharpé and Marc van Sande, Clinical Chemistry, 31, 1936-1939 (1985); and Wei Wang, Dirk F. Hendriks, Simon S. Scharpé, The Journal of Biological Chemistry, 269, 15937-15944 (1994).
# The activities of certain Examples in the assay described in: Dirk Hendriks, Simon Scharpé and Marc van Sande, Clinical Chemistry, 31, 1936-1939 (1985) are presented in Table I below.
row,pIC50,Structure (SMILES)
1,6.22,"Nc1ccc(CC(C(=O)O)C(S)CCc2cccc(C(=O)OCCc3c(Cl)cccc3Cl)c2)cn1 (stereo not shown) [Example 31, 2-[(6-Aminopyridin-3-yl)methyl]-5-(3-{[2-(2,6-dichlorophenyl)ethoxy]carbonyl}phenyl)-3-mercaptopentanoic acid]"
2,6.22,"Nc1ccc(CC(C(=O)O)C(S)CCc2cccc(C(=O)NCCF)c2)cn1 (stereo not shown) [Example 33, 2-[(6-Aminopyridin-3-yl)methyl]-5-(3-{[(2-fluoroethyl)amino]carbonyl}phenyl)-3-mercaptopentanoic acid]"
3,6.22,CN(Cc1ccccc1)C(=O)c1cccc(CCC(S)C(Cc2ccc(N)nc2)C(=O)O)c1 (stereo not shown) [Example 41]
4,6.22,"Nc1ccc(CC(C(=O)O)C(S)CCc2cccc(C(=O)N3CCCC3)c2)cn1 (stereo not shown) [Example 42, 2-[(6-Aminopyridin-3-yl)methyl]-3-mercapto-5-[3-(pyrrolidin-1-ylcarbonyl)phenyl]pentanoic acid]"
5,5.70,"CCOC(=O)C1CCN(C(=O)c2cccc(CCC(S)C(Cc3ccc(N)nc3)C(=O)O)c2)CC1 (stereo not shown) [Example 43, 2-[(6-Aminopyridin-3-yl)methyl]-5-(3-{[4-(ethoxycarbonyl)piperidin-1-yl]carbonyl}phenyl)-3-mercaptopentanoic acid]"
6,6.00,"CN(CC#N)S(=O)(=O)c1cccc(CCC(S)C(Cc2ccc(N)nc2)C(=O)O)c1 (stereo not shown) [Example 47, 2-[(6-Aminopyridin-3-yl)methyl]-5-(3-{[(cyanomethyl)(methyl)amino]-sulfonyl}phenyl)-3-mercaptopentanoic acid]"

# More lines, now with the values behind:
row,Structure (SMILES),pIC50
1,"Nc1ccc(CC(C(=O)O)C(S)CCc2cccc(Cl)c2)cn1 (stereo not shown) [Example 6, 2-[(6-Aminopyridin-3-yl)methyl]-5-(3-chlorophenyl)-3-mercaptopentanoic acid]",6.10
2,"Nc1ccc(CC(C(=O)O)C(S)CCc2ccc3c(c2)OCO3)cn1 (stereo not shown) [Example 7, 2-[(6-Aminopyridin-3-yl)methyl]-5-(1,3-benzodioxol-5-yl)-3-mercaptopentanoic acid]",6.10
3,"N#CCc1ccc(CCC(S)C(Cc2ccc(N)nc2)C(=O)O)cc1 (stereo not shown) [Example 11, 2-[(6-Aminopyridin-3-yl)methyl]-5-[4-(cyanomethyl)phenyl]-3-mercaptopentanoic acid]",6.10
4,"Nc1ccc(CC(C(=O)O)C(S)CCC2CCCS2)cn1 (stereo not shown) [Example 18, 2-[(6-Aminopyridin-3-yl)methyl]-3-mercapto-5-(tetrahydro-2-thienyl)pentanoic acid]",6.00
5,"Nc1ncc(CC(C(=O)O)C(S)CCc2ccccc2)s1 (stereo not shown) [Example 24, 2-[(2-Amino-1,3-thiazol-5-yl)methyl]-3-mercapto-5-phenylpentanoic acid]",5.20
6,"O=C(O)C(CC1C2CCC1CNC2)C(S)CCc1ccccc1 (stereo not shown) [Example 25, 2-(3-Azabicyclo[3.2.1]oct-8-ylmethyl)-3-mercapto-5-phenylpentanoic acid]",5.40
7,"Nc1ccc(CC(C(=O)O)C(S)CCc2cccc(C(=O)N3CCc4ccccc4C3)c2)cn1 (stereo not shown) [Example 28, 2-[(6-Aminopyridin-3-yl)methyl]-5-[3-(3,4-dihydroisoquinolin-2(1H)-ylcarbonyl)phenyl]-3-mercaptopentanoic acid]",6.10
